Drawing on a melting point compilation (Tetko et al.; mined from patent text by program, amines drawn as free bases though some values may be those of a salt), this text covers melting point for 62 molecules.

The structures appear in SMILES notation.

What is called melting point is the temperature of the solid-liquid transition. In the case of `Cc1ncoc1C(C)(N)c1ccoc1` (configuration not stated), the melting point fell in the range of 82.5 to 83.5 °C.
Molecule `O=C(O)c1cc(C(=O)O)cc(P(=O)(O)O)c1` registered a melting point of 360 °C.
In turn, `CCOC(=O)C(=NNc1ccc([N+](=O)[O-])cc1)C(C)=O` returned a melting point of 128 °C.
As for `N#Cc1ccc(-c2nc3c(C(N)=O)cccc3[nH]2)cc1`, the melting point was over 310 °C.
The same measure for `O=C(O)c1c[nH]c2cc(C3CC3)nn2c1=O`: 275 to 278 °C; for `N#Cc1ccc2c(c1)C[C@H](NS(=O)(=O)c1ccccc1)CN2C(=O)c1ccccc1`: 174 to 175 °C.
`O=C(O)C1CN(S(=O)(=O)c2ccc3cc(Cl)ccc3c2)CCN1C(=O)C1CCN(c2ccncc2)CC1` (configuration not stated) yielded a melting point of 215 to 220 °C.
The molecule `CC(=O)c1cccc([C@H]2C[C@H]2NC(=O)Nc2ccc(Cl)cn2)c1` (racemic) displayed a melting point of 144 to 145 °C.
As to `CC1=C(C(=O)OCCCl)C(c2cccc3c(=O)c(C)c(-c4ccccc4)oc23)C(C(=O)OC(C)C)=C(C)N1` (configuration not stated), the melting point fell in the range of 235 to 237 °C.
To `CC(=O)NCCN1CCCc2ccccc21` belongs 102 °C; to `CC(CCC(=O)NC(C)(C)C)C1CC=C2C3=C(CCC21C)C1(C)CCC(O)C(C)(C)C1CC3` (configuration not stated), 171 to 176 °C.
As to `CS(=O)(=O)NCCCCCC1CCSS1` (configuration not stated), the melting point was 43 to 46 °C.
In turn, `CSc1nc(Cl)cc(P(C)(C)=O)n1` yielded a melting point of 172 to 182 °C.
With `CCC(=O)Oc1ccc2c(=O)c(C(=O)CC)c(CC)oc2c1`, the melting point came to 84 °C.
The molecule `O=C(OCc1ccccc1)N1CCOc2cc(Oc3cc(Cl)ncn3)ccc21` displayed a melting point of 110 °C.
To `COc1ccc2c(c1)c(CCl)nn2Cc1ccccc1` belongs 78 to 80 °C.
Molecule `COc1ccc(N2CCN(c3ccc(OC)nc3-c3ccc(N(C)C)cc3)CC2)cc1` yielded a melting point of 163 to 165 °C.
Molecule `Clc1ccc2nc(Cl)cnc2c1` came in with a melting point of 152 °C.
Regarding `COCCn1c(C)cc(C(=O)c2cccc(Cl)c2)c1C`, the melting point lay within 112 to 113 °C.
The molecule `CC(C)(C)NC(=O)[C@@H]1CSCN1C[C@@H](O)[C@H](Cc1ccccc1)NC(=O)OCc1ccccc1` yielded a melting point of 62 to 65 °C.
The same measure for `CCOC(=O)c1ncc2[nH]c3cccc(OCc4ccccc4)c3c2c1COC`: 130 to 131 °C.
On to `CCCn1nc(OCc2ccc3ccccc3n2)cc1COc1c(CC)cccc1CC(=O)O`, for which the melting point lay within 118 to 119 °C.
The molecule `CCCCCC(=O)c1c(O)oc(=O)c(C(=O)CCCCC)c1O` had a melting point of 87 to 88 °C.
Molecule `CC(C)(C)NC(=O)c1nn(-c2ccc(F)cc2)c2c1C1CCC2CC1` registered a melting point of 190 to 193 °C.
As to `O=C(O)C(=NO)C(c1ccc(OCc2ccc3ccc(Cl)cc3n2)cc1)c1ccc(OCc2ccc3ccc(Cl)cc3n2)cc1`, the melting point was 201 to 202 °C.
Regarding `O=C1C(c2ccc(O)cc2)=C(c2ccccc2)c2cc(O)cc(O)c21`, the melting point lay within 128 to 130 °C.
Take `O=C(Nc1cccc(S(=O)(=O)NCc2cccnc2)c1)c1cnn2c(C(F)F)cc(-c3ccc(C(F)(F)F)cc3)nc12`: the melting point is 256 °C.
Molecule `COc1cc(COc2nn(-c3ccccc3)cc2/C=C/c2cncn2C)ccc1OCc1nc(-c2ccco2)oc1C` showed a melting point of 144 to 145 °C.
The molecule `COc1cc(C)c(O)c2ccccc12` displayed a melting point of 102 to 103 °C.
For `COc1cc(OCc2nc(-c3ccco3)oc2C)ccc1C=O`, the melting point lay within 111 to 112 °C.
Molecule `CCSc1snc(OCOCC#CI)c1C#N` gave a melting point of 57 to 58 °C.
Take `CCOC(=O)c1c(C(F)(F)F)nc(C(F)(F)Cl)c(C(=O)O)c1OCC`: the melting point fell in the range of 81 to 83 °C.
Take `CCOC(=O)C(=CNC1CC1)C(=O)c1cc(F)c(F)c(F)c1F`: the melting point lay in the range of 63 to 65 °C.
As for `CNc1ccc2cccc(OCCOc3nccnc3N3CCNCC3)c2n1`, the melting point was in the range of 54 to 56.5 °C.
`CCn1cc(C(=O)c2sc(NC(=O)c3ccncc3)nc2-c2ccco2)ccc1=O` yielded a melting point of 295 to 296 °C.
Take `O=C(O)CN1C(=O)C(=Cc2ccc([N+](=O)[O-])o2)SC1=S`: the melting point lay in the range of 238 to 242 °C.
As for `Nc1nc2c(c(=O)[nH]1)S[C@H](CCc1ccc(C(=O)O)s1)CN2`, the melting point lay in the range of 283 to 285 °C.
`Cc1c(SCCCN2CCNCC2)ccnc1CNc1cnc2ccccc2c1`: the melting point was 105 to 108 °C.
Consider `O=C(O)c1cc(COc2ccccc2)cc(Cn2cc(C3c4ccccc4C=Cc4ccccc43)c(=S)[nH]c2=O)c1`, for which the melting point was in the range of 160 to 165 °C.
Molecule `CC(=O)N1CCCn2nc(-c3ccncc3)c(-c3ccc(F)cc3)c21` showed a melting point of 184 to 185 °C.
For `CC(C)(C)OC(=O)NCc1cc(C(=O)O)ccn1`, the melting point is 207 °C.
`CC(I)CC(F)(F)C(F)(F)C(F)(F)C(F)(F)C(F)(F)C(F)(F)CC(C)I` (configuration not stated) came in with a melting point of 53 °C.
With `O=C(O)c1ccc(NCc2ccc(Cl)s2)cc1`, the melting point lay within 177 to 178 °C.
`O[C@H](COc1cccc2[nH]ccc12)CN1CCC(c2c[nH]c3cc(C(F)(F)F)ccc23)CC1`: the melting point was 100 to 105 °C.
In the case of `COC(=O)CSc1cc(NC(=O)OC(C)(C)C)c([N+](=O)[O-])cc1I`, the melting point lay in the range of 110 to 112 °C.
`NC(=O)c1cccc(OCCCl)c1` had a melting point of 125 to 126 °C.
`CCOC(=O)C(C#N)=C(C)Nc1ccnc(-c2ccncc2)n1`: the melting point fell in the range of 203 to 205 °C.
In turn, `CSc1nnc(-c2cc3c(Oc4ccc(Cl)cc4)cncc3s2)o1` returned a melting point of 158 to 160 °C.
The molecule `O=C1N(C(c2ccccc2)c2ccccc2)c2ccccc2C12COc1cc3c(cc12)OCCO3` (configuration not stated) yielded a melting point of 183 to 185 °C.
In turn, `N#Cc1cc(Cn2cncn2)cc(-c2ccc(OS(N)(=O)=O)cc2)c1` came in with a melting point of 166 to 167 °C.
`CC1(C)Oc2ccc(C#N)cc2C(C2=C(C(O)C(N)=O)C=CCC2)=C1O` (configuration not stated) came in with a melting point of 235 to 237 °C.
The same measure for `Oc1cccc2ccc3ccccc3c12`: 114 to 116 °C; for `NC(=O)C(N)CC(=O)N[C@@H]1CN2C(=O)N(c3cc(Cl)nc(Cl)c3)C(=O)[C@@]2(Cc2ccc(OC(F)(F)F)cc2)C1` (some centres not stated): 108 °C; for `CCc1nc2cc(/C=C/C(=O)NO)ccc2c(=O)n1CCCc1ccccc1`: 189 to 191 °C.
The same measure for `COc1ccc(/C=C/C(=O)C2C(=O)CC(c3ccc(OC)cc3)C([N+](=O)[O-])C2C=Cc2ccccc2)cc1` (configuration not stated): 88 to 90 °C; for `COC(=O)C=Cc1cn(C)nc1[N+](=O)[O-]`: 110 to 112 °C.
`CC(C)Cn1c(=O)n(C)c(=O)c2c(CCCCC(=O)O)n(Cc3cccc4ccccc34)cc21` registered a melting point of 146 to 147 °C.
For the molecule `CCOc1ncc(C(C)=O)cc1C(=O)Nc1c(C(N)=O)nn(C2CN(CC)C2)c1CC`, the melting point is 230 to 233 °C.
For the molecule `COc1ccc2c(Nc3cccc(CCO)c3)c3ccccc3nc2c1`, the melting point is 186 to 188 °C.
As to `CCC1(N)CCN(c2c(F)c(N)c3c(=O)c(C(=O)O)cn(C4CC4)c3c2F)C1` (configuration not stated), the melting point lay in the range of 205 to 206 °C.
In turn, `O=c1c2ccccc2n(Cc2ccccc2)c2cc(Cl)ccc12` gave a melting point of 134 to 136 °C.
In turn, `C=CCNc1nc(SC)nc2cc(OC)c(OC)cc12` came in with a melting point of 122 to 124 °C.
